These are literature values, as cited in paper PMC11292818 (ACS Omega, 2024).

One may read the pIC50 as −log10 of the IC50, conventionally taken in molar units.

For this data set, the target named is acetylcholinesterase (AChE) (Homo sapiens, UniProt P22303). The following applies: read-out: IC50 against acetylcholinesterase.

Each structure is given as a SMILES string. pIC50: −log10 of the molar value.

acetylcholinesterase (AChE), sequence (P22303 32-614, species assumed): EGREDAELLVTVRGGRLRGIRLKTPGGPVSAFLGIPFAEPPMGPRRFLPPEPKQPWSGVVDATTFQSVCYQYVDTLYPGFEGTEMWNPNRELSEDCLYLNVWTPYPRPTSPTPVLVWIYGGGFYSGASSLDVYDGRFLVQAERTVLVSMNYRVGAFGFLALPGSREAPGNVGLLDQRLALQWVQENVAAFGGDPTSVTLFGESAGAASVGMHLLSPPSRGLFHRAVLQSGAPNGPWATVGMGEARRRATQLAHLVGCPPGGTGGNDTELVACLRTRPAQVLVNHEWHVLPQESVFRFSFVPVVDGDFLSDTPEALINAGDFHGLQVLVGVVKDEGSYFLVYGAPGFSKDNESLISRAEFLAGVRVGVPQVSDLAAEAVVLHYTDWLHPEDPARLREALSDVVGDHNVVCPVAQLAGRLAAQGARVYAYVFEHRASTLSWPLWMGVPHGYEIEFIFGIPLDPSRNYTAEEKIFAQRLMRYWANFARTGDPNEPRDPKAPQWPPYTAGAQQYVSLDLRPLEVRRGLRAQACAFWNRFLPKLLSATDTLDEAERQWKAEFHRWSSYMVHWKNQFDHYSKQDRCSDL

For the molecule `COc1cc(O)c(OC)c(O)c1C(=O)/C=C/c1ccccc1` [Compound 3, 2′,4′-dihydroxy-3′,6′-dimethoxychalcone], the pIC50 is 4.70.

Turning to `CC(C)=CCc1c(O)ccc(C(=O)/C=C/c2ccc(O)cc2)c1O` [Compound 4, isobavachalcone], the pIC50 is 4.74.
